Results on 53 compounds are retold here after US6620828B2, “Thiazole compounds and pharmaceutical compositions for inhibiting protein kinases and methods for their use” (Agouron Pharmaceuticals, Inc., priority 1999, dated 2003).

One may read the inhibition as the change of the read-out against control, counted positive when it falls.

For this assay, the system named is human umbilical vein endothelial cells (HUVEC). As to the kind of experiment: HUVEC proliferation assay. It is filed as cell-based. The note with it: for % inhibition @ 150 nM: Table I screening results, crude combinatorial amide library; for inhibition at 0.001 µM / inhibition at 0.01 µM: Homo sapiens, HUVEC, table following Table II (untitled), crude combinatorial library; for inhibition at 0.001 µM: 1 nM; for inhibition at 0.01 µM: 10 nM, read-out: % inhibition @ 10 nM. In a few lines:
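Readout was MTT dye reduction (A595) after 72 h of stimulation with VEGF at 6 ng/ml final. Compound, in 0.1% DMSO final, was added 1 h before VEGF to HUVEC starved 24 h in 1% FBS. % inhibition was scaled between VEGF-alone and unstimulated wells; IC50 was fitted from triplicate dose curves.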

As for `COc1cc(Nc2nc(N)c(-c3nc(-c4cccc(NC(=O)C5CCN(C(C)=O)CC5)c4)cs3)s2)cc(OC)c1OC`, the “% inhibition @ 150 nM” value is 0%.
For `COc1cc(Nc2nc(N)c(-c3nc(-c4cccc(NC(=O)/C=C/c5cccc6ccccc56)c4)cs3)s2)cc(OC)c1OC`, the “% inhibition @ 150 nM” value is 0%.
Consider `COc1cc(Nc2nc(N)c(-c3nc(-c4cccc(NC(=O)C(C5CCCCC5)C5CCCCC5)c4)cs3)s2)cc(OC)c1OC`, for which the “% inhibition @ 150 nM” value is 0%.
Same read-out and setting: with `COc1cc(Nc2nc(N)c(-c3nc(-c4cccc(NC(=O)CCc5cccnc5)c4)cs3)s2)cc(OC)c1OC` the figure was 0%.
Turning to `COc1cc(/C=C/C(=O)Nc2cccc(-c3csc(-c4sc(Nc5cc(OC)c(OC)c(OC)c5)nc4N)n3)c2)cc(OC)c1OC`, the “% inhibition @ 150 nM” value was determined as 0%.
Regarding `COc1ccc(/C=C/C(=O)Nc2cccc(-c3csc(-c4sc(Nc5cc(OC)c(OC)c(OC)c5)nc4N)n3)c2)cc1OC`, the “% inhibition @ 150 nM” value was found to be 0%.
For the compound `C=CCC(C)C(=O)Nc1cccc(-c2csc(-c3sc(Nc4cc(OC)c(OC)c(OC)c4)nc3N)n2)c1` (stereo not drawn), the “% inhibition @ 150 nM” value was 0%.
On the same count and under the same terms, with `[CH2-][N+](=O)c1cccc(/C=C/C(=O)Nc2cccc(-c3csc(-c4sc(Nc5cc(OC)c(OC)c(OC)c5)nc4N)n3)c2)c1` the figure was 0%; with `COc1cc(Nc2nc(N)c(-c3nc(-c4cccc(NC(=O)/C=C/c5cccc(Cl)c5)c4)cs3)s2)cc(OC)c1OC`, 0%; with `COc1cc(Nc2nc(N)c(-c3nc(-c4cccc(NC(=O)/C=C/c5ccco5)c4)cs3)s2)cc(OC)c1OC`, 0%.
Same read-out and setting: the figure for `COc1cc(Nc2nc(N)c(-c3nc(-c4cccc(NC(=O)/C=C/c5ccoc5)c4)cs3)s2)cc(OC)c1OC` is 0%.
For `COc1cc(Nc2nc(N)c(-c3nc(-c4cccc(NC(=O)/C=C/c5ccccc5F)c4)cs3)s2)cc(OC)c1OC`, the “% inhibition @ 150 nM” value was found to be 0%.
On the same count and under the same terms, with `COc1cc(Nc2nc(N)c(-c3nc(-c4cccc(NC(=O)/C=C/c5ccc(F)cc5)c4)cs3)s2)cc(OC)c1OC` the figure was 0%; with `COc1cc(Nc2nc(N)c(-c3nc(-c4cccc(NC(=O)C(=O)c5c[nH]c6ccccc56)c4)cs3)s2)cc(OC)c1OC`, 0%.
Same read-out and setting: with `COc1ccc(C(=O)Nc2cccc(-c3csc(-c4sc(Nc5cc(OC)c(OC)c(OC)c5)nc4N)n3)c2)cc1Cl` the figure was 0%.
As for `COc1cc(Nc2nc(N)c(-c3nc(-c4cccc(NC(=O)Cc5ccccc5C)c4)cs3)s2)cc(OC)c1OC`, the “% inhibition @ 150 nM” value was 0%.
Regarding `COc1cc(Nc2nc(N)c(-c3nc(-c4cccc(NC(=O)/C=C/c5cccc(F)c5)c4)cs3)s2)cc(OC)c1OC`, the “% inhibition @ 150 nM” value is listed as 0%.
In the case of `COc1ccccc1CCC(=O)Nc1cccc(-c2csc(-c3sc(Nc4cc(OC)c(OC)c(OC)c4)nc3N)n2)c1`, the “% inhibition @ 150 nM” value stood at 0%.
As to `COc1cc(CCC(=O)Nc2cccc(-c3csc(-c4sc(Nc5cc(OC)c(OC)c(OC)c5)nc4N)n3)c2)cc(OC)c1OC`, the “% inhibition @ 150 nM” value is 0%.
Turning to `COc1cc(Nc2nc(N)c(-c3nc(-c4cc(NC(=O)c5ccccc5)ccc4C)no3)s2)cc(OC)c1OC`, the inhibition at 0.001 µM stood at 25% and the inhibition at 0.01 µM was 111%.
For `COc1cc(Nc2nc(N)c(-c3nc(-c4cc(NC(=O)c5cc(=O)[nH]c(=O)[nH]5)ccc4C)no3)s2)cc(OC)c1OC`, the inhibition at 0.001 µM was -4% and the inhibition at 0.01 µM came to 4%.
The like results for `COc1cc(Nc2nc(N)c(-c3nc(-c4cc(NC(=O)C5CCCO5)ccc4C)no3)s2)cc(OC)c1OC` (stereo not drawn) were, in that order, 7% and 21%.
`COc1cccc(/C=C/C(=O)Nc2ccc(C)c(-c3noc(-c4sc(Nc5cc(OC)c(OC)c(OC)c5)nc4N)n3)c2)c1`: the inhibition at 0.001 µM was -5% and the inhibition at 0.01 µM worked out at 40%.
The like results for `COc1cc(Nc2nc(N)c(-c3nc(-c4cc(NC(=O)C(O)c5ccccc5)ccc4C)no3)s2)cc(OC)c1OC` (stereo not drawn) were, in that order, -1% and 40%.
The like results for `COc1cc(Nc2nc(N)c(-c3nc(-c4cc(NC(=O)C(=O)Cc5ccccc5)ccc4C)no3)s2)cc(OC)c1OC` were, in that order, 23% and 21%.
For `COc1cc(Nc2nc(N)c(-c3nc(-c4cc(NC(=O)CSC(=S)N(C)C)ccc4C)no3)s2)cc(OC)c1OC`, in that order: 6% and -7%.
With `COc1cc(Nc2nc(N)c(-c3nc(-c4cc(NC(=O)C5C(C=C(C)C)C5(C)C)ccc4C)no3)s2)cc(OC)c1OC` (stereo not drawn), the inhibition at 0.001 µM amounted to 8% and the inhibition at 0.01 µM is -11%.
With `COc1cc(Nc2nc(N)c(-c3nc(-c4cc(NC(=O)[C@@]56C[C@@H]7C[C@@H]5CC7(C)C6)ccc4C)no3)s2)cc(OC)c1OC`, the inhibition at 0.001 µM was 1% and the inhibition at 0.01 µM came out at 23%.
For `COc1cc(Nc2nc(N)c(-c3nc(-c4cc(NC(=O)Cc5cccnc5)ccc4C)no3)s2)cc(OC)c1OC`, in that order: -4% and 21%.
On to `COc1cc(Nc2nc(N)c(-c3nc(-c4cc(NC(=O)Cc5cc(F)ccc5F)ccc4C)no3)s2)cc(OC)c1OC`, for which the inhibition at 0.001 µM is -7% and the inhibition at 0.01 µM is 59%.
Turning to `COc1cc(Nc2nc(N)c(-c3nc(-c4cc(NC(=O)Cc5cc(F)cc(F)c5)ccc4C)no3)s2)cc(OC)c1OC`, the inhibition at 0.001 µM was 4% and the inhibition at 0.01 µM was found to be 67%.
The like results for `COc1cccc(CC(=O)Nc2ccc(C)c(-c3noc(-c4sc(Nc5cc(OC)c(OC)c(OC)c5)nc4N)n3)c2)c1` were, in that order, 12% and 35%.
For `COc1cc(Nc2nc(N)c(-c3nc(-c4cc(NC(=O)C5CC[C@H]6C=C[C@@H]5C6)ccc4C)no3)s2)cc(OC)c1OC` (stereo partly drawn), the inhibition at 0.001 µM was -2% and the inhibition at 0.01 µM worked out at 33%.
For `COc1cc(Nc2nc(N)c(-c3nc(-c4cc(NC(=O)CCc5ccc(C)cc5)ccc4C)no3)s2)cc(OC)c1OC`, in that order: -18% and 23%.
For the compound `COc1cc(Nc2nc(N)c(-c3nc(-c4cc(NC(=O)c5cc(C)on5)ccc4C)no3)s2)cc(OC)c1OC`, the inhibition at 0.001 µM was 12% and the inhibition at 0.01 µM stood at 15%.
For the compound `COc1cc(Nc2nc(N)c(-c3nc(-c4cc(NC(=O)C(=O)CC(C)C)ccc4C)no3)s2)cc(OC)c1OC`, the inhibition at 0.001 µM is 7% and the inhibition at 0.01 µM was 18%.
For `COc1cc(Nc2nc(N)c(-c3nc(-c4cc(NC(=O)C5CCCC(OC)C5)ccc4C)no3)s2)cc(OC)c1OC` (stereo not drawn), the inhibition at 0.001 µM was -4% and the inhibition at 0.01 µM is 19%.
For `COc1cc(Nc2nc(N)c(-c3nc(-c4cc(NC(=O)C5(c6ccc(C)cc6)CC5)ccc4C)no3)s2)cc(OC)c1OC`, the inhibition at 0.001 µM is 10% and the inhibition at 0.01 µM was -8%.
The like results for `COc1cc(Nc2nc(N)c(-c3nc(-c4cc(NC(=O)Cc5sc(S)nc5C)ccc4C)no3)s2)cc(OC)c1OC` were, in that order, -17% and 1%.
For `COc1cc(Nc2nc(N)c(-c3nc(-c4cc(NC(=O)c5cc(C)n(C)n5)ccc4C)no3)s2)cc(OC)c1OC`, in that order: 25% and 99%.
For `COc1cc(Nc2nc(N)c(-c3nc(-c4cc(NC(=O)C5CC(=O)OC5(C)C)ccc4C)no3)s2)cc(OC)c1OC` (stereo not drawn), in that order: -9% and 12%.
As for `COc1cc(Nc2nc(N)c(-c3nc(-c4cc(NC(=O)c5cc(C)n[nH]5)ccc4C)no3)s2)cc(OC)c1OC`, the inhibition at 0.001 µM is -1% and the inhibition at 0.01 µM came out at 99%.
For `COc1cc(Nc2nc(N)c(-c3nc(-c4cc(NC(=O)c5cc(C)nn5C)ccc4C)no3)s2)cc(OC)c1OC`, in that order: -23% and 109%.
As to `COc1cc(Nc2nc(N)c(-c3nc(-c4cc(NC(=O)c5cc(C)[nH]c5C)ccc4C)no3)s2)cc(OC)c1OC`, the inhibition at 0.001 µM is -36% and the inhibition at 0.01 µM was 16%.
For `COc1cc(Nc2nc(N)c(-c3nc(-c4cc(NC(=O)c5cccc6cc[nH]c56)ccc4C)no3)s2)cc(OC)c1OC`, in that order: 34% and 41%.
For the compound `C/C=C(\C)C(=O)Nc1ccc(C)c(-c2noc(-c3sc(Nc4cc(OC)c(OC)c(OC)c4)nc3N)n2)c1`, the inhibition at 0.001 µM is 60% and the inhibition at 0.01 µM was determined as 123%.
As to `COc1cc(Nc2nc(N)c(-c3nc(-c4cc(NC(=O)c5cc(=O)cco5)ccc4C)no3)s2)cc(OC)c1OC`, the inhibition at 0.001 µM came to 19% and the inhibition at 0.01 µM amounted to 37%.
As for `CCCN(CCC)CC(=O)Nc1ccc(C)c(-c2noc(-c3sc(Nc4cc(OC)c(OC)c(OC)c4)nc3N)n2)c1`, the inhibition at 0.001 µM stood at 6% and the inhibition at 0.01 µM was 0%.
The like results for `CC/C=C(\C)C(=O)Nc1ccc(C)c(-c2noc(-c3sc(Nc4cc(OC)c(OC)c(OC)c4)nc3N)n2)c1` were, in that order, 32% and 74%.
`COc1cc(Nc2nc(N)c(-c3nc(-c4cc(NC(=O)Cc5c(F)cccc5F)ccc4C)no3)s2)cc(OC)c1OC`: the inhibition at 0.001 µM was -23% and the inhibition at 0.01 µM was found to be 42%.
The like results for `COc1cc(Nc2nc(N)c(-c3nc(-c4cc(NC(=O)C5C(C)(C)C5(C)C)ccc4C)no3)s2)cc(OC)c1OC` were, in that order, -31% and 32%.
The like results for `CCNc1ccccc1C(=O)Nc1ccc(C)c(-c2noc(-c3sc(Nc4cc(OC)c(OC)c(OC)c4)nc3N)n2)c1` were, in that order, -21% and 18%.
Consider `COc1cc(Nc2nc(N)c(-c3nc(-c4cc(NC(=O)[C@H]5CCCN5C(C)=O)ccc4C)no3)s2)cc(OC)c1OC`, for which the inhibition at 0.001 µM was -44% and the inhibition at 0.01 µM is -3%.
